US8673890B2, “2,3-dihydro-1H-isoindol-1-imine derivatives useful as thrombin PAR-1 receptor antagonist” (Janssen Pharmaceutica NV, priority 2009, dated 2014)
Values joined by “and” are separate entries in the source; they are usually repeats but may differ in a detail not shown here. Equal entries are not always repeated.

How the values were obtained:
[1] = test system: platelets in platelet-rich plasma; experiment: Thrombin-induced platelet aggregation in platelet-rich plasma; assay type: cell-based, human; conditions: for IC50: multiple values = individual measurements; for inhibition at 10 µM: 10 μM compound
Procedure: (§1) The procedure for this assay is similar to that described in Biological Example 2, above. Briefly, platelet aggregation studies were performed according to the method of Bednar et al. (Bednar, B., Condra, C., Gould, R. J., and Connolly, T. M., Thromb. Res., 77:453-463 (1995)). Platelet-rich plasma (PRP) concentrates prepared from healthy volunteers who were aspirin free for at least 7 days by venipuncture using EDTA as anticoagulant was purchased from Biological Specialties, Inc. (Colmar, Pa.). PPP (platelet-poor-plasma) was obtained by centrifugation of PRP at Max (3,000 rpms) for 15 min at room temperature. PRP was diluted to yield platelet count of 300×10^3 platelets/μL with PPP. For thrombin induced platelet aggregation: 118 μL of 500 mM GPRP-NH2 was added to 12 mL of 300×10^3 platelets before using (to clean the fibrinogen in the plasma.) GPRP was added just before the experiment. 15 μL of test compound solutions were added to 120 μL of platelets 5 min prior the agonist additions. Platelet aggregation was initiated by the addition of agonist shown to achieve 60-70% aggregation. Antagonist potency was estimated as a % inhibition of the control Har peptide or thrombin response to obtain an IC50.
(§2) Where multiple values are listed for a particular compound, said numbers represent individual measurements (tests) for said compound.

[2] = biological target: T1, thrombin receptor (PAR-1) (Homo sapiens, UniProt P25116); experiment: FLIPR-based calcium-flux assay with human smooth muscle cells (Har peptide agonist); assay type: cell-based; conditions: HSMC; 30 nM Har (PAR1) peptide agonist; 80-min drug incubation; multiple values = individual measurements
T1 construct: Human aortic smooth muscle cells (HSMC) were purchased from Cascade Biologics; host or cells: human aortic smooth muscle cells (HSMC)
T1 sequence (P25116 22-425): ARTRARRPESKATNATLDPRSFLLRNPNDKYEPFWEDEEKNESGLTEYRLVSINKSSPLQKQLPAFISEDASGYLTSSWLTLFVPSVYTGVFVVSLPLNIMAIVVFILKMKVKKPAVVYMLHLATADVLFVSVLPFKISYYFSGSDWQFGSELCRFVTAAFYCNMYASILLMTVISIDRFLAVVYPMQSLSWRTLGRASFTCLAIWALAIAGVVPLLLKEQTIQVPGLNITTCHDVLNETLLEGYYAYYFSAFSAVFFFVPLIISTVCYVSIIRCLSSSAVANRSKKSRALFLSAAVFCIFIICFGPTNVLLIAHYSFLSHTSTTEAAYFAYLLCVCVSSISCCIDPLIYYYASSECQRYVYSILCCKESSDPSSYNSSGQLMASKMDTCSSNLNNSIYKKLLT
Procedure: Human aortic smooth muscle cells (HSMC) were purchased from Cascade Biologics (Portland, Oreg.) and cultured in M-231 containing smooth muscle cell growth supplement and 1× Antibiotic-Antimycotic.
To determine agonist concentration for compound testing: On the day prior to the assay, 100 μL of cells (2×10^5/mL) were seeded in clear, flat-bottom black-wall, tissue culture treated polystyrene 96-well plates and incubated at 37° C., 5% CO2. On the day of the assay, 50 μL of complete dye loading solution (FLIPR Calcium 3 Kit, Molecular Devices) was added to each well containing 100 μL of culture media. The cells were incubated for 30-45 min at 37° C., in 5% CO2 before initiating the assay on the FLIPR. The agonist effect of PAR1 peptide (S-(p-F-Phe)-Har-L-Har-KY-NH2; Har=homoarginine; referred to herein as “Har” peptide) was tested and the EC50 was determined. The EC60-70 dose was used (30 nM) for compound testing.
Compound testing: On the day prior to the assay, 90 μL of cells (2.2×10^5/mL) were seeded in clear, flat-bottom black-wall, tissue culture treated polystyrene 96-well plates and incubated at 37° C., 5% CO2. On the day of the assay, the test compounds were prepared at 10× in 3% DMSO Hanks buffer and 10 μL was added to each well (final DMSO concentration of 0.3%). The cells were incubated 20 min at 37° C., 5% CO2. Culture medium containing testing compounds was dumped and the cells were washed four times with DPBS containing 0.1% of BSA and re-fed with 80 μL of growth medium. 70 μL of BD (fluorescent) dye was loaded to the cells and incubated 45 min at 37° C. incubator. The plates were equilibrated to room temperature for 15 min. 4× PAR1 peptide (30 nM final concentration) agonist plate and the cell plate were placed in FLIPR's assay chamber. 50 μL agonist was added to the cells and data was recorded for 5 min. Raw fluorescence data was exported for each well and tabulated versus time within an ASCII file. Data was then imported into Excel® and the peak response over basal level was determined. The percent inhibition for each test compound was calculated by the changes of fluorescent density as a % inhibition of the control Har peptide response to obtain an IC50.
Representative compounds of the present invention were tested according to the procedure described in Biological Example 1 above, with results in Table 8 below. In Table 8 below, where multiple values are listed for a particular compound, said numbers represent individual measurements (tests) for said compound.

[3] = test system: platelets in platelet-rich plasma; experiment: Har peptide-induced platelet aggregation in platelet-rich plasma; assay type: cell-based, human; conditions: for IC50: multiple values = individual measurements
Procedure: as §1, §2

washed platelets [4] = experiment: Thrombin-induced platelet aggregation in washed platelets; assay type: cell-based, human; conditions: Homo sapiens, Platelet
Procedure: (§3) Platelet aggregation studies were performed according to the method of Bednar et al. (Bednar, B., Condra, C., Gould, R. J., and Connolly, T. M., Thromb. Res., 77:453-463 (1995)). Platelet-rich plasma (PRP) concentrates prepared from healthy volunteers who were aspirin free for at least 7 days by venipuncture using ACD-A as anticoagulant was purchased from Biological Specialties, Inc. (Colmar, Pa.). PRP was centrifuged at 730 g for 15 min. The platelet pellet was washed twice in CGS buffer (13 mM sodium citrate, 30 mM glucose, 120 mM NaCl, pH 6.5) containing 1 U/ml apyrase (grade V, Sigma-Aldrich, St. Louis, Mo.), 1 mM EGTA, and re-suspended in Tyrode's buffer (140 mM NaCl, 2.7 mM KCl, 12 mM NaHCO3, 0.76 mM Na2HPO4, 5.5 mM dextrose, 5.0 mM HEPES, 0.2% BSA, pH 7.4). The platelets were diluted to 3×10^8 platelets/ml and kept >45 min at 37° C. before use. 105 μl of washed platelets, 2 mM CaCl2 and […] of fibrinogen (for PAR-1 peptide-induced platelet aggregation only) were added to a 96-well microliter plate. Platelet aggregation was initiated by the addition of serial concentrations of Har peptide or thrombin (Alpha; American Diagnostica, Cat. # 470HT, 2,500 NIH Units/mg). Buffer was added to one set of control wells. The assay plate was stirred constantly and intermittently placed in a microplate reader (Softmax, Molecular Devices, Menlo Park, Calif.) to read optical density (650 nm) at 0 and 5 minutes after the addition of the compound solutions. Aggregation was calculated as the decrease in optical density between the time 0- and 5-min measurements and expressed as % of aggregation.
(§4) For the inhibition assay, platelet aggregation measurements were conducted as described, with the additional step of test compound addition. Compounds were prepared in 100% DMSO and stored. On the day of the experiment, the compounds were diluted in the Tyrode's buffer containing 3% of DMSO as a 10× working solution. 15 μl of test compound solutions were added to 105 μl of platelets 5 min prior to CaCl2 and fibrinogen additions. Platelet aggregation was initiated by the addition of agonist shown to achieve 60-70% aggregation. Antagonist potency was estimated as a % inhibition of the control Har peptide or thrombin response to obtain an IC50.
(§5) Representative compounds of the present invention were tested according to the procedure described in Biological Example 2 above, with results in Table 9 below. In Table 9 where multiple values are listed for a particular compound, said numbers represent individual measurements (tests) for said compound.

washed platelets [5] = experiment: Har peptide-induced platelet aggregation in washed platelets; assay type: cell-based; conditions: Homo sapiens
Procedure: as §3, §4, §5

| Structure (SMILES) | IC50 ([1]; Homo sapiens, Platelet) | IC50 [1] | IC50 [2] | IC50 ([3]; Homo sapiens, Platelet) | IC50 [3] | IC50 (washed platelets [4]) | IC50 (washed platelets [5]) | inhibition at 10 µM ([1]; Homo sapiens) | inhibition at 10 µM ([3]; Homo sapiens, 10 μM compound) |
| --- | --- | --- | --- | --- | --- | --- | --- | --- | --- |
| CC(C)(C)c1cc(C(=O)CN2Cc3cc4c(cc3C2=N)OCC(F)(F)CO4)cc(C(C)(C)C)c1O [Compound 93] | > 10000 nM | > 10000 nM | 0.27 µM and 0.13 µM | 2080 nM | 3800 nM |  |  |  |  |
| COc1c(N2CCOCC2)cc(C(=O)CN2Cc3cc4c(cc3C2=N)OCc2cc(F)c(F)cc2CO4)cc1C(C)(C)C [Compound 89] | 4880 nM | 4610 nM and 6020 nM | 0.29 µM and 0.13 µM | 1280 nM | 2310 nM |  |  |  |  |
| COc1c(N2CCOCC2)cc(C(=O)CN2Cc3cc4c(cc3C2=N)OCc2ncccc2CO4)cc1C(C)(C)C [Compound 52] |  |  | 0.025 µM |  |  | 0.282 µM | 0.172 µM |  |  |
| CC(C)(C)c1cc(C(=O)CN2Cc3cc4c(cc3C2=N)OCc2nccnc2CO4)cc(C(C)(C)C)c1O [Compound 77] | 1230 nM | 1920 nM and 1550 nM | 0.046 µM and 0.074 µM | 630 nM | 490 nM and 830 nM |  |  |  |  |
| CC(C)(C)c1cc(C(=O)CN2Cc3cc4c(cc3C2=N)OCc2cccnc2CO4)ccc1O [Compound 83] | > 10000 nM | > 10000 nM | 0.24 µM and 0.35 µM |  | 840 nM and 1750 nM |  |  |  |  |
| CC(C)(C)c1cc(C(=O)CN2Cc3cc4c(cc3C2=N)OCc2ccc(C(=O)O)cc2CO4)cc(C(C)(C)C)c1O [Compound 81] | > 10000 nM | > 10000 nM | 0.054 µM and 0.082 µM and 0.014 µM | > 10000 nM | > 10000 nM |  |  |  |  |
| CC(C)(C)c1cc(C(=O)CN2Cc3cc4c(cc3C2=N)OCc2ncccc2CO4)ccc1O [Compound 82] | 2570 nM |  | 0.11 µM and 0.17 µM | 640 nM | 930 nM |  |  | 21% |  |
| COc1c(N2CCOCC2)cc(C(=O)CN2Cc3cc4c(cc3C2=N)OCC(F)(F)C(F)(F)CO4)cc1C(C)(C)C [Compound 90, 1-(3-tert-butyl-4-methoxy-5-morpholinophenyl)-2-(3,3,4,4-tetrafluoro-8-imino-4,5-dihydro-2H-[1,4]-dioxocino[2,3-f]isoindol-9(3H,8H,10H)-yl)ethanone] | > 10000 nM |  | 0.68 µM and 0.2 µM and 0.57 µM | 2560 nM | 4450 nM |  |  | 30% |  |
| CC(C)(C)c1cc(C(=O)CN2Cc3cc4c(cc3C2=N)OCc2cc(C(=O)O)ccc2CO4)cc(C(C)(C)C)c1O [Compound 72] | > 10000 nM |  | 0.25 µM and 0.14 µM | > 10000 nM | > 10000 nM |  |  |  |  |
| COc1c(N2CCOCC2)cc(C(=O)CN2Cc3cc4c(cc3C2=N)OCc2ccccc2CO4)cc1C(C)(C)C [Compound 46] | 4710 nM |  | 0.094 µM and 0.1 µM | 1820 nM | 1040 nM |  |  | 34% |  |
| COc1c(N2CCOCC2)cc(C(=O)CN2Cc3cc4c(cc3C2=N)OC/C=C\CO4)cc1C(C)(C)C [Compound 97] | 2190 nM |  | 0.05 µM and 0.1 µM | 1300 nM |  |  |  |  |  |
| CC(C)(C)c1cc(C(=O)CN2Cc3cc4c(cc3C2=N)OCc2ccccc2CO4)cc(C(C)(C)C)c1O [Compound 47] | 2540 nM | 2750 nM | 0.04 µM and 0.088 µM | 2270 nM | 2250 nM |  |  |  |  |
| COc1c(N2CCOCC2)cc(C(=O)CN2Cc3cc4c(cc3C2=N)OCC(F)(F)CO4)cc1C(C)(C)C [Compound 92] | > 10000 nM | > 10000 nM | 0.53 µM and 0.36 µM |  |  |  |  |  | 24% |
| CC(C)(C)c1cc(C(=O)CN2Cc3cc4c(c(F)c3C2=N)OCc2ccccc2CO4)cc(C(C)(C)C)c1O [Compound 96] | 3230 nM | 3250 nM | 0.031 µM and 0.015 µM | 1570 nM | 2300 nM |  |  |  |  |
| CC(C)(C)c1cc(C(=O)CN2Cc3cc4c(cc3C2=N)OCc2c(F)ccc(F)c2CO4)cc(C(C)(C)C)c1O [Compound 87] | > 10000 nM | > 10000 nM | 0.043 µM and 0.02 µM | 7380 nM | > 10000 nM |  |  |  |  |
